≈ marks a conversion by molar mass, not a printed value. Calls of active or inactive are those of the source. No cut-off for these calls is given here.
Legend:
DNA repair protein REV1 = target: T1, DNA repair protein REV1 (Homo sapiens, UniProt Q9UBZ9); assay: Displacement of FAM-labelled polkappa-RIR peptide from recombinant human C-terminal Rev1 (1158 to 1251 residues) expressed in Escherichia coli BL21(DE3) after 1 hr by fluorescence polarization assay
T1 sequence (Q9UBZ9 whole entry): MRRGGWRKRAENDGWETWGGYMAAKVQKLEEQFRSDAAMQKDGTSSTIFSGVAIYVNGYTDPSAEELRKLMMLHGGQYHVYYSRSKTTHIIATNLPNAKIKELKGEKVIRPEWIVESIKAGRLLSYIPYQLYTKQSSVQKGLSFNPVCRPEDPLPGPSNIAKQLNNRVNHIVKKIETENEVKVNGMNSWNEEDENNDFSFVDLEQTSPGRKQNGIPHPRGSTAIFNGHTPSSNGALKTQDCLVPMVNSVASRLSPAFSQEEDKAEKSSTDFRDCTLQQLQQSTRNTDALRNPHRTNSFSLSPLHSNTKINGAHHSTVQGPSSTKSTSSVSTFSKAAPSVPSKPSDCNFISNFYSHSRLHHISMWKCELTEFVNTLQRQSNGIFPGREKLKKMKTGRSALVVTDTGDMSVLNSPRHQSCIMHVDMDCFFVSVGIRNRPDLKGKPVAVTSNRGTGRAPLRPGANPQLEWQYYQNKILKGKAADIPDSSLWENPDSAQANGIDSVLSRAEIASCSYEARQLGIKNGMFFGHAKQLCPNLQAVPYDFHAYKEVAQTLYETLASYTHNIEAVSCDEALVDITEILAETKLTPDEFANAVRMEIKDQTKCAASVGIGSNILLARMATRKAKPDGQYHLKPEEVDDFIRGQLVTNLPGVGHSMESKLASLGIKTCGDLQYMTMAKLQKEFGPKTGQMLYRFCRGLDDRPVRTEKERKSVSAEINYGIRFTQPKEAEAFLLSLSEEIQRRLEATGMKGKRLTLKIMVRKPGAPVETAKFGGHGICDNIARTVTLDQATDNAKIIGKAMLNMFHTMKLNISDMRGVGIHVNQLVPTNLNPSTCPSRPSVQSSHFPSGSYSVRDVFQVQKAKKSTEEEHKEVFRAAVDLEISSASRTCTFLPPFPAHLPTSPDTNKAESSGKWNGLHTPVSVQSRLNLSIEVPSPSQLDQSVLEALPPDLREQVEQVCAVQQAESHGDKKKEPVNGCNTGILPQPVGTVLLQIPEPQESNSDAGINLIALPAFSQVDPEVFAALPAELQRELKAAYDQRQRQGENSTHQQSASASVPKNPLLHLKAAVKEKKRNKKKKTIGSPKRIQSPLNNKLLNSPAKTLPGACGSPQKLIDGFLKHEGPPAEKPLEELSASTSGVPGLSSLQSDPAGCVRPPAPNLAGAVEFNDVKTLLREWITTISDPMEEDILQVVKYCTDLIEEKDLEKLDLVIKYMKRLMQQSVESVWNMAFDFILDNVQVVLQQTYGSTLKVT

[1] = target: T2, DNA repair protein REV1 (Homo sapiens) (UniProt Q9UBZ9); assay: Displacement of FAM-labelled polkappa-RIR peptide from recombinant human C-terminal Rev1 (1158 to 1251 residues) expressed in Escherichia coli BL21(DE3) at 10 uM after 1 hr by fluorescence polarization assay relative to control
T2 sequence (whole entry): T1 sequence (Q9UBZ9 whole entry)

[2] = Drug metabolism in human liver microsomes assessed as hydrolysis by measuring methyl 2-(piperidine-4-carboxamido)-5-propylthiophene-3-carboxylate formation at 10 uM after 30 to 60 mins by LC-MS/MS analysis; assay type: ADME, microsome
U2OS [3] = assay: Potentiation of cisplatin-induced cytotoxicity in cisplatin-resistant human U2OS cells assessed as cisplatin GI50 at 25 uM after 72 hrs by MTS assay (reference value: 23.9 +/- 1.9 uM); assay type: functional
U2OS [4] = assay: Potentiation of cisplatin-induced cytotoxicity in cisplatin-resistant human U2OS cells assessed as cisplatin GI50 at 50 uM after 72 hrs by MTS assay (reference value: 23.9 +/- 1.9 uM); assay type: functional
[5] = Solubility of the compound in pH 7.4 phosphate buffered saline
[6] = Drug metabolism in human liver microsomes assessed as oxidation at 10 uM after 30 to 60 mins by LC-MS/MS analysis; assay type: ADME, microsome
[7] = Drug metabolism in human liver microsomes assessed as oxidation and dehydrogenation at 10 uM after 30 to 60 mins by LC-MS/MS analysis; assay type: ADME, microsome
[8] = Drug metabolism in human liver microsomes assessed as dehydrogenation at 10 uM after 30 to 60 mins by LC-MS/MS analysis; assay type: ADME, microsome
[9] = Stability of the compound in pH 7.4 phosphate buffered saline assessed as parent compound remaining at 5 uM; assay type: physicochemical; conditions: read-out: Stability
[10] = Drug metabolism in human liver microsomes assessed as demethylation by measuring 2-(1-acetylpiperidine-4-carboxamido)-5-propylthiophene-3-carboxylic acid formation at 10 uM after 30 to 60 mins by LC-MS/MS analysis; assay type: ADME, microsome
[11] = Growth inhibition of cisplatin-resistant human U2OS cells after 72 hrs by MTS assay; assay type: cell-based
[12] = Intrinsic clearance in human liver microsomes at 1 uM; assay type: ADME, microsome
[13] = Solubility of the compound in pH 4 phosphate buffered saline
[14] = Permeability of the compound by PAMPA; assay type: ADME
[15] = Ratio of solubility in pH 7.4 phosphate buffered saline to pH 4 phosphate buffered saline; assay type: physicochemical; conditions: buffer
[16] = Retention time of the compound in human liver microsomes at 10 uM by LC-MS/MS analysis; assay type: ADME, microsome
U2OS [17] = assay: Potentiation of cisplatin-induced cytotoxicity in cisplatin-resistant human U2OS cells assessed as cisplatin GI50 at 10 uM after 72 hrs by MTS assay (reference value: 23.9 +/- 1.9 uM); assay type: functional
U2OS [18] = assay: Potentiation of cisplatin-induced cytotoxicity in cisplatin-resistant human U2OS cells assessed as increase in cisplatin-induced reduction in colony survival at 20 uM treated for 24 hrs measured after 7 days by Coomassie Brilliant Blue R-250 staining based assay; assay type: functional, cell-based

Row | SMILES | IC50 (DNA repair protein REV1) | Kd (DNA repair protein REV1) | Ki (DNA repair protein REV1) | inhibition [1] | GI50 (U2OS [4]) | GI50 at 72 h [11] | further results
1 | CCn1c2ccccc2c2cc(NC(=O)N3CCC(C(C)=O)CC3)ccc21 | 4.6 µM | 6.9 µM | 8.9 µM | > 85% |  |  | 
2 | CCCc1cc(C(=O)OC)c(NC(=O)C2CCN(C(C)=O)CC2)s1 | 4.1 µM | 3.5 µM | 3.6 µM | > 85% | 19.6 µM | > 100 µM | Drug metabolism [2]: Metabolite_Detected; GI50 (U2OS [3]): 12.6 µM; solubility [5]: 63.3 µM (≈ 22.3 µg/mL); Drug metabolism [6]: Metabolite_Detected; Drug metabolism [7]: Metabolite_Detected; Drug metabolism [8]: Metabolite_Detected; remaining at 5 µM [9]: 95%; Drug metabolism [10]: Metabolite_Detected; CLH [12]: 18.8 µL/min/mg; solubility [13]: 21.1 µM (≈ 7.44 µg/mL); log(permeability) [14]: -4.5; Ratio [15]: 3
3 | CC(=O)N1CCC(C(=O)Nc2sc3c(c2C(=O)NC2CC2)CCCC3)CC1 | 21.5 µM | 26.6 µM | 31.5 µM | > 85% |  |  | 
4 | Cc1ccc(C(=O)N2CCN(c3ccccc3)CC2)cc1S(=O)(=O)N1CCOCC1 | 3.5 µM | 2.9 µM | 3 µM | > 85% | 28.2 µM | > 100 µM | 
5 | CCCc1cc(C(=O)O)c(NC(=O)C2CCN(C(C)=O)CC2)s1 |  |  |  |  |  |  | Retention_time [16]: 3.8 min
6 | CCc1ccc(NC(=O)CN2CCN(c3ccccc3)CC2)cc1 | > 50 µM | 49.5 µM |  | > 85% |  |  | 
7 | Cc1cccc(N2CCN(CC(=O)Nc3ccc(F)cc3)CC2)c1C | 21.1 µM | 12.4 µM | 14.8 µM | > 85% |  |  | 
8 | CCCC1CCc2c(sc(NC(=O)C3CCN(C(C)=O)CC3)c2C(N)=O)C1 (stereo not drawn) | 4.9 µM | 9.5 µM | 11.9 µM | > 85% |  |  | 
9 | CCCCc1ccc(-n2nnc(C(=O)N(C)C3CCS(=O)(=O)C3)c2C)cc1 (stereo not drawn) | 5.9 µM | 3.6 µM | 4.9 µM | > 85% | 20.1 µM | > 100 µM | GI50 (U2OS [3]): 25.7 µM
10 | COc1ccc(OC)c(-c2csc(N3CCN(C(=O)c4ccco4)CC3)n2)c1 | 6.2 µM | 3.7 µM | 4.8 µM | > 85% | 11.8 µM | > 100 µM | GI50 (U2OS [3]): 11.9 µM
11 | COC(=O)c1cc(C)sc1NC(=O)C1CCN(C(C)=O)CC1 | 9.4 µM | 8.2 µM | 7.4 µM | > 85% |  |  | 
12 | CC(=O)N1CCC(C(=O)Nc2sc3c(c2C(N)=O)CCC(C)C3)CC1 (stereo not drawn) | 13.2 µM | 12.6 µM | 15.7 µM | > 85% |  |  | 
13 | CC(C)(C)C(=O)N1CCN(c2ccc(NC(=O)c3cccnc3)cc2Cl)CC1 | 12.3 µM | 18.2 µM | 19 µM | > 85% | 25.9 µM | > 100 µM | 
14 | CC(=O)C(C)n1c(CN2CCN(c3cccc(Cl)c3)CC2)nc2c1c(=O)n(C)c(=O)n2C (stereo not drawn) | 2.5 µM | 2.1 µM | 2 µM | > 85% | 7.8 µM | > 100 µM | GI50 (U2OS [3]): 12.3 µM; GI50 (U2OS [17]): 19.3 µM
15 | N#Cc1ccc(NC(=O)CN2CCN(c3ccc(F)cc3)CC2)cc1 | > 50 µM | 109 µM |  | > 85% |  |  | 
16 | CCc1cc(C(=O)OC)c(NC(=O)C2CCN(C(C)=O)CC2)s1 | 12.4 µM | 23.7 µM | 28.8 µM | > 85% |  |  | 
17 | COc1cc2c(cc1OC)CN(Cc1ccc(OCc3ccccc3)cc1)CC2 | 11.9 µM | 12.6 µM | 14.5 µM | > 85% | 10.1 µM | > 100 µM | GI50 (U2OS [3]): 13.4 µM; Activity (U2OS [18]): Active; GI50 (U2OS [17]): 16.5 µM
18 | CCS(=O)(=O)N(C)c1ccc(C(=O)N2CCN(c3ccccc3OC)CC2)cc1 | 4.6 µM | 4.3 µM | 4.7 µM | > 85% | 11.9 µM | > 100 µM | GI50 (U2OS [3]): 13.3 µM
19 | CCc1ccc(NC(=O)CN2CCN(c3ccc(OC)cc3)CC2)cc1 | 5.5 µM | 3.6 µM | 3.6 µM | > 85% |  |  | 
20 | O=C(CN1CCN(c2ccc(F)cc2)CC1)Nc1ccccc1 | 28 µM | 42.2 µM | 46.6 µM | > 85% |  |  | 
21 | CCCc1cc(C(=O)OC)c(NC(=O)C2CCNCC2)s1 |  |  |  |  |  |  | Retention_time [16]: 10.58 min
22 | CCCc1cc(C(=O)OCC)c(NC(=O)C2CCN(C(C)=O)CC2)s1 | 5.9 µM | 7.8 µM | 11.6 µM | > 85% |  |  | 
23 | CCc1ccc(NC(=O)CN2CCN(c3ccc(F)cc3)CC2)cc1 | 2.5 µM | 6.5 µM | 6.9 µM | > 85% |  |  | 
24 | CC(=O)N1CCC(C(=O)Nc2sc3c(c2C(=O)NC2CC2)CCC(C)C3)CC1 (stereo not drawn) | 2.5 µM | 4.4 µM | 4.6 µM | > 85% | 15.3 µM | > 100 µM | GI50 (U2OS [3]): 24.4 µM; Activity (U2OS [18]): inactive
